The results in this text go back to US20230002357A1, “7-PYRIMIDINE-2-YL-OXY-INDAZOLE DERIVATIVES AND THEIR USE AS HERBICIDES” (SYNGENTA CROP PROTECTION AG, priority 2019, published 2023).

Common to all, as to assay type: in vivo
What all share (conditions): 250 g/ha, evaluated after 13 days

Experiment [1] relates to Amaranthus retoflexus (AMARE). In words: Post-emergence Test, glasshouse, AMARE. The essentials:
(§1)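 Pots were sprayed 1 day after sowing (pre-emergence) or after 8 days' growth (post-emergence) at 250 g/ha, formulated in acetone/water 50:50 with 0.5% Tween 20. Glasshouse conditions were 24/16 °C, 14 h light, 65% humidity. Damage was scored after 13 days on a 1–5 scale (5 = 81–100%).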

In experiment [2] the test system is ABUTH. In words: Post-emergence Test, glasshouse, ABUTH. The method in brief:
as §1

Experiment [3] relates to Setaria faberi (SETFA). In words: Post-emergence Test, glasshouse, SETFA. The essentials:
as §1

The subject of experiment [4] is Echinochloa crus-galli (ECHCG). Briefly: Post-emergence Test, glasshouse, ECHCG. The essentials:
as §1

For experiment [5], the system named is IPOHE. In words: Post-emergence Test, glasshouse, IPOHE. The essentials: as §1
Experiment [6] deals with Amaranthus retoflexus (AMARE). Briefly: Pre-emergence Test, glasshouse, AMARE. The method in brief: as §1
In experiment [7] the test system is ABUTH. Briefly: Pre-emergence Test, glasshouse, ABUTH. The method in brief:
as §1

For experiment [8], the system named is Setaria faberi (SETFA). In words: Pre-emergence Test, glasshouse, SETFA. The method in brief: as §1
Experiment [9] has as its system Echinochloa crus-galli (ECHCG). In words: Pre-emergence Test, glasshouse, ECHCG. The essentials: as §1
Experiment [10] deals with IPOHE. Briefly: Pre-emergence Test, glasshouse, IPOHE. The method in brief:
as §1

Take `COCCn1nc(Cl)c2cccc(Oc3ncc(Cl)cn3)c21` [Compound 1.034]: the “percentage damage caused to the plant, five-point scale, AMARE” value (“percentage damage caused … AMARE” below) in [1] and in [6] was 5 (5=81-100%) each time. For the same compound, the figures for the “percentage damage caused to the plant, five-point scale, ABUTH” value (“percentage damage caused … ABUTH” below) with ABUTH [2] and with ABUTH [7] were 4 (4=61-80%) and 2 (2=21-40%), respectively. Further, the “percentage damage caused to the plant, five-point scale, SETFA” value (“percentage damage caused … SETFA” below) in the experiment on Setaria faberi (SETFA) [3] is 4 (4=61-80%); in the experiment on Setaria faberi (SETFA) [8], 5 (5=81-100%). The “percentage damage caused to the plant, five-point scale, ECHCG” value (“percentage damage caused … ECHCG” below) is reported as 4 (4=61-80%) in experiment [4] and 5 (5=81-100%) in experiment [9]. Also, the “percentage damage caused to the plant, five-point scale, IPOHE” value (“percentage damage caused … IPOHE” below) in the experiment on IPOHE [5] is listed as 4 (4=61-80%); in the experiment with IPOHE [10], 3 (3=41-60%).

In the case of `FC(F)(F)CCn1nc(Cl)c2cccc(Oc3ncc(Cl)cn3)c21` [Compound 1.035], the “percentage damage caused … AMARE” value is reported as 5 (5=81-100%) in experiment [1] and 4 (4=61-80%) in [6]. In addition, the “percentage damage caused … ABUTH” value in the experiment with ABUTH [2] is on record as 5 (5=81-100%); in the experiment with ABUTH [7] it was 3 (3=41-60%). In addition, the results for the “percentage damage caused … SETFA” value with Setaria faberi (SETFA) [3] and in the experiment on Setaria faberi (SETFA) [8] were 4 (4=61-80%) and 5 (5=81-100%), respectively. Also, the “percentage damage caused … ECHCG” value in [4] and in experiment [9] was 5 (5=81-100%) each time. The “percentage damage caused … IPOHE” value in the experiment on IPOHE [5] is 4 (4=61-80%); in the experiment on IPOHE [10] it was 3 (3=41-60%).

Regarding `FC(F)(F)CCCn1ncc2ccc(Br)c(Oc3ncc(Cl)cn3)c21` [Compound 1.036], the “percentage damage caused … AMARE” value in experiment [1] and in experiment [6] was 1 (1=0-20%) throughout. Further, the “percentage damage caused … ABUTH” value in the experiment on ABUTH [2] and in the experiment on ABUTH [7] was 1 (1=0-20%) each time. The “percentage damage caused … SETFA” value with Setaria faberi (SETFA) [3] and in the experiment on Setaria faberi (SETFA) [8] was 1 (1=0-20%) throughout. For the same compound, the “percentage damage caused … ECHCG” value in experiment [4] and in experiment [9] was 1 (1=0-20%) each time. The “percentage damage caused … IPOHE” value in the experiment on IPOHE [5] and in the experiment with IPOHE [10] was 1 (1=0-20%) throughout.

As for `FC(F)(F)CCCn1nc(Cl)c2ccc(Br)c(Oc3ncc(Cl)cn3)c21` [Compound 1.037], the “percentage damage caused … AMARE” value in experiment [1] is 2 (2=21-40%); in experiment [6] it was 1 (1=0-20%). Moreover, the “percentage damage caused … ABUTH” value in the experiment on ABUTH [2] and in the experiment on ABUTH [7] was 1 (1=0-20%) in each case. Moreover, the “percentage damage caused … SETFA” value in the experiment with Setaria faberi (SETFA) [3] and with Setaria faberi (SETFA) [8] was 1 (1=0-20%) throughout. In addition, the “percentage damage caused … ECHCG” value in experiment [4] and in experiment [9] was 1 (1=0-20%) in each case. Also, the “percentage damage caused … IPOHE” value in the experiment on IPOHE [5] and in the experiment on IPOHE [10] was 1 (1=0-20%) throughout.

As for `FCCCCn1nc(Cl)c2cccc(Oc3ncc(Cl)cn3)c21` [Compound 1.039], the “percentage damage caused … AMARE” value in [1] and in experiment [6] was 5 (5=81-100%) each time. In addition, the “percentage damage caused … ABUTH” value with ABUTH [2] was 4 (4=61-80%); in the experiment with ABUTH [7], 3 (3=41-60%). Further, the “percentage damage caused … SETFA” value in the experiment with Setaria faberi (SETFA) [3] is 4 (4=61-80%); in the experiment on Setaria faberi (SETFA) [8], 5 (5=81-100%). The figures for the “percentage damage caused … ECHCG” value in [4] and in [9] were 4 (4=61-80%) and 5 (5=81-100%), respectively. Moreover, the “percentage damage caused … IPOHE” value is reported as 4 (4=61-80%) with IPOHE [5] and 1 (1=0-20%) in the experiment on IPOHE [10].

Turning to `FC(F)CCCn1nc(Cl)c2cccc(Oc3ncc(Cl)cn3)c21` [Compound 1.040], the “percentage damage caused … AMARE” value in [1] and in [6] was 5 (5=81-100%) each time. Further, the “percentage damage caused … ABUTH” value in the experiment with ABUTH [2] and in the experiment on ABUTH [7] was 4 (4=61-80%) in each case. For the same compound, the “percentage damage caused … SETFA” value in the experiment with Setaria faberi (SETFA) [3] was 4 (4=61-80%); in the experiment on Setaria faberi (SETFA) [8], 5 (5=81-100%). For the same compound, the “percentage damage caused … ECHCG” value in experiment [4] and in experiment [9] was 5 (5=81-100%) throughout. In addition, the “percentage damage caused … IPOHE” value is 5 (5=81-100%) with IPOHE [5] and 2 (2=21-40%) with IPOHE [10].

Turning to `N#Cc1ccc2c(Cl)nn(CCCC(F)(F)F)c2c1Oc1ncc(Cl)cn1` [Compound 1.041, 3-chloro-7-(5-chloropyrimidin-2-yl)oxy-1-(4,4,4-trifluorobutyl)indazole-6-carbonitrile], the “percentage damage caused … AMARE” value in experiment [1] and in experiment [6] was 1 (1=0-20%) throughout. The “percentage damage caused … ABUTH” value in the experiment on ABUTH [2] and with ABUTH [7] was 1 (1=0-20%) throughout. The “percentage damage caused … SETFA” value in the experiment on Setaria faberi (SETFA) [3] and with Setaria faberi (SETFA) [8] was 1 (1=0-20%) each time. Also, the “percentage damage caused … ECHCG” value in experiment [4] and in experiment [9] was 1 (1=0-20%) each time. The “percentage damage caused … IPOHE” value in the experiment on IPOHE [5] and in the experiment on IPOHE [10] was 1 (1=0-20%) in each case.

Take `FC(F)(F)CCn1ncc2cccc(Oc3ncc(Cl)cn3)c21` [Compound 1.042]: the “percentage damage caused … AMARE” value in [1] is listed as 4 (4=61-80%); in experiment [6] it was 5 (5=81-100%). Also, the “percentage damage caused … ABUTH” value with ABUTH [2] and with ABUTH [7] was 4 (4=61-80%) each time. For the same compound, the entries for the “percentage damage caused … SETFA” value in the experiment with Setaria faberi (SETFA) [3] and in the experiment with Setaria faberi (SETFA) [8] were 4 (4=61-80%) and 5 (5=81-100%), respectively. The figures for the “percentage damage caused … ECHCG” value in experiment [4] and in experiment [9] were 4 (4=61-80%) and 5 (5=81-100%), respectively. The “percentage damage caused … IPOHE” value with IPOHE [5] is on record as 2 (2=21-40%); in the experiment with IPOHE [10] it was 1 (1=0-20%).

As for `Cc1ccc2c(Cl)nn(CCCC(F)(F)F)c2c1Oc1ncc(Cl)cn1` [Compound 1.043, 3-chloro-7-(5-chloropyrimidin-2-yl)oxy-6-methyl-1-(4,4,4-trifluorobutyl)indazole], the entries for the “percentage damage caused … AMARE” value in experiment [1] and in experiment [6] were 4 (4=61-80%) and 5 (5=81-100%), respectively. Moreover, the “percentage damage caused … ABUTH” value with ABUTH [2] is given as 3 (3=41-60%); in the experiment on ABUTH [7], 1 (1=0-20%). Also, the “percentage damage caused … SETFA” value is reported as 3 (3=41-60%) in the experiment with Setaria faberi (SETFA) [3] and 4 (4=61-80%) with Setaria faberi (SETFA) [8]. Further, the “percentage damage caused … ECHCG” value in experiment [4] and in [9] was 3 (3=41-60%) each time. In addition, the figures for the “percentage damage caused … IPOHE” value in the experiment with IPOHE [5] and in the experiment with IPOHE [10] were 4 (4=61-80%) and 1 (1=0-20%), respectively.

In the case of `Cc1ccc2cnn(CCCC(F)(F)F)c2c1Oc1ncc(Cl)cn1` [Compound 1.044], the “percentage damage caused … AMARE” value in experiment [1] is 1 (1=0-20%); in [6], 2 (2=21-40%). Also, the “percentage damage caused … ABUTH” value in the experiment on ABUTH [2] and in the experiment on ABUTH [7] was 1 (1=0-20%) in each case. The results for the “percentage damage caused … SETFA” value in the experiment on Setaria faberi (SETFA) [3] and in the experiment on Setaria faberi (SETFA) [8] were 1 (1=0-20%) and 3 (3=41-60%), respectively. Also, the “percentage damage caused … ECHCG” value in experiment [4] is on record as 1 (1=0-20%); in experiment [9], 3 (3=41-60%). The “percentage damage caused … IPOHE” value in the experiment on IPOHE [5] and with IPOHE [10] was 1 (1=0-20%) in each case.

Regarding `N#Cc1ccc2cnn(CCCC(F)(F)F)c2c1Oc1ncc(Cl)cn1` [Compound 1.046], the “percentage damage caused … AMARE” value in [1] is given as 2 (2=21-40%); in experiment [6] it was 1 (1=0-20%). The “percentage damage caused … ABUTH” value with ABUTH [2] and in the experiment with ABUTH [7] was 2 (2=21-40%) each time. Moreover, the “percentage damage caused … SETFA” value in the experiment on Setaria faberi (SETFA) [3] and in the experiment on Setaria faberi (SETFA) [8] was 1 (1=0-20%) throughout. Also, the “percentage damage caused … ECHCG” value in [4] and in experiment [9] was 1 (1=0-20%) each time. Moreover, the “percentage damage caused … IPOHE” value in the experiment on IPOHE [5] and in the experiment with IPOHE [10] was 1 (1=0-20%) in each case.
